Results published in the kinase profiling compilation of Christmann-Franck et al. (2016).

Experiments:
Assay in all cases: radiometric filter-binding kinase assay, Kinase HotSpot
Settings in all cases: compound 0.5 µM; ATP 10 µM
[1] = molecular target: CDK5 CDK5R1 p25 (human) (UniProt Q00535+Q15078)
[2] = molecular target: PLK2 (human) (UniProt Q9NYY3)
[3] = molecular target: RPS6KA6 KD1 KD2 (human) (UniProt Q9UK32)
[4] = molecular target: MAPK8 (human) (UniProt P45983)
[5] = molecular target: ROS1 (human) (UniProt P08922)
[6] = molecular target: AKT3 (human) (UniProt Q9Y243)
Chain of AKT3 (human) (Q9Y243 whole entry, looked up): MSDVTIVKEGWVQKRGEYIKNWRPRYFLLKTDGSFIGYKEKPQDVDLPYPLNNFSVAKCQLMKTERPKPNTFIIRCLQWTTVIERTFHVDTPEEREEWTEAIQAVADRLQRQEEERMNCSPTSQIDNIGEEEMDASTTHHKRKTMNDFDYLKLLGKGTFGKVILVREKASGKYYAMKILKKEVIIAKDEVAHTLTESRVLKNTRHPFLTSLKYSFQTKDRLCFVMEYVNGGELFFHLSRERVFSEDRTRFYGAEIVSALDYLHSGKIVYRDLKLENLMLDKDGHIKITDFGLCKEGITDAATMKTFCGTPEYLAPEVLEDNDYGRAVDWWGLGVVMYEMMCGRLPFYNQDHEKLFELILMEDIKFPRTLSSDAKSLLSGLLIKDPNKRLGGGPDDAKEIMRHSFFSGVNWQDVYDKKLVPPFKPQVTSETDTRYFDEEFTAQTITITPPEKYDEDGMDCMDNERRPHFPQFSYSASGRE

[7] = molecular target: MUSK (human) (UniProt O15146)
[8] = molecular target: RPS6KA2 KD1 KD2 (human) (UniProt Q15349)
[9] = molecular target: FGFR3 (human) (UniProt P22607)
[10] = molecular target: MINK1 (human) (UniProt Q8N4C8)
[11] = molecular target: HIPK2 (human) (UniProt Q9H2X6)
[12] = molecular target: GRK7 (human) (UniProt Q8WTQ7)
[13] = molecular target: MAP3K3 (human) (UniProt Q99759)
[14] = molecular target: AKT2 (human) (UniProt P31751)
[15] = molecular target: EPHA5 (human) (UniProt P54756)
[16] = molecular target: TSSK2 (human) (UniProt Q96PF2)
[17] = molecular target: RPS6KB1 (human) (UniProt P23443)
[18] = molecular target: NLK (human) (UniProt Q9UBE8)
[19] = molecular target: CSF1R (human) (UniProt P07333)
Chain of CSF1R (human) (P07333 whole entry, looked up): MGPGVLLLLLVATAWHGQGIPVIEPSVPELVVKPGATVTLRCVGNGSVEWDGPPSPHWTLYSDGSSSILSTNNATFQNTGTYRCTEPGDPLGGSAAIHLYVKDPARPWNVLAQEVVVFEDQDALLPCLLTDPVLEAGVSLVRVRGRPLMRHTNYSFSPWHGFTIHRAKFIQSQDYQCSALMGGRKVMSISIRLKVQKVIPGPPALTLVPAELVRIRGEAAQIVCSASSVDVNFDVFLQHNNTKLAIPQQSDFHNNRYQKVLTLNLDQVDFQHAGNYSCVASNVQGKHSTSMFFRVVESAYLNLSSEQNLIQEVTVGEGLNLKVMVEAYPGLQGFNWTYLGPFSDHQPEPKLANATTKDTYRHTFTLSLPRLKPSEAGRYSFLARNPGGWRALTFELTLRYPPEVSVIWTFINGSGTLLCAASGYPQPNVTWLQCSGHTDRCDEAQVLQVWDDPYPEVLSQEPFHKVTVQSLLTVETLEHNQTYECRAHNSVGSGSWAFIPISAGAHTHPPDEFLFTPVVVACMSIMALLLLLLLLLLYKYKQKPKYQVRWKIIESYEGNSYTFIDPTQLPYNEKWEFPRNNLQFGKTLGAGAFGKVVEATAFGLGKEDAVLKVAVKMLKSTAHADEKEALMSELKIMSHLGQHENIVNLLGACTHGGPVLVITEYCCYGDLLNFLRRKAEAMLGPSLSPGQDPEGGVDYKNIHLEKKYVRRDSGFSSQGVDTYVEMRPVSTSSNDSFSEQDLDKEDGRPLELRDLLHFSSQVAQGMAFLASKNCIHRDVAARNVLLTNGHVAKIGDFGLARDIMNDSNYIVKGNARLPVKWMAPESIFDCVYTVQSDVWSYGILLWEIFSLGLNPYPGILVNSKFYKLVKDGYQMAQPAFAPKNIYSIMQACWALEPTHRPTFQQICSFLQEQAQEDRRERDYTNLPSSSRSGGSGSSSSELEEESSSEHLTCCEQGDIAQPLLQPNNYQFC

[20] = molecular target: NUAK1 (human) (UniProt O60285)
[21] = molecular target: PRKG2 (human) (UniProt Q13237)
[22] = molecular target: TEC (human) (UniProt P42680)
[23] = molecular target: SRPK1 (human) (UniProt Q96SB4)
[24] = molecular target: CDK9 CCNT1 (human) (UniProt P50750+O60563)
Chain of CDK9 CCNT1 (human) (O60563 whole entry, looked up): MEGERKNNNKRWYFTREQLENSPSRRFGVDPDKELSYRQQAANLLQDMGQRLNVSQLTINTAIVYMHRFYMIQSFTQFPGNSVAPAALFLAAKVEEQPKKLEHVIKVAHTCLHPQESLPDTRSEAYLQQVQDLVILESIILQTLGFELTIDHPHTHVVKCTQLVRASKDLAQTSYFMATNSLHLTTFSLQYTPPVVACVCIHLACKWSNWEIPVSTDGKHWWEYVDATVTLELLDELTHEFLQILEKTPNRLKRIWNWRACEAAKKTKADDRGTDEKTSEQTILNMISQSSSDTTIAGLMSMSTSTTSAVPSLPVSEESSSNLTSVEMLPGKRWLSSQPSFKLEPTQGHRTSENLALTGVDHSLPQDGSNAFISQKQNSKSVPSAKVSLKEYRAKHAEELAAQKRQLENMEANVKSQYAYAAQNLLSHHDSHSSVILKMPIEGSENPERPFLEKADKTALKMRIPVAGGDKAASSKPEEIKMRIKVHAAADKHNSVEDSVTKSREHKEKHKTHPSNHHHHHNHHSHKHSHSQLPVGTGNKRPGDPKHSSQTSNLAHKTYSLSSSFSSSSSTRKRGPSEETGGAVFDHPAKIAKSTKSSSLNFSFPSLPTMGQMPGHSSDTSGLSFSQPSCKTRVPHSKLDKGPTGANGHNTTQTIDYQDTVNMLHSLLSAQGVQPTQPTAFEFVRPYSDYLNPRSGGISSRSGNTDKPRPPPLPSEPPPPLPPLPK
Chain of CDK9 CCNT1 (human) (P50750 whole entry, looked up): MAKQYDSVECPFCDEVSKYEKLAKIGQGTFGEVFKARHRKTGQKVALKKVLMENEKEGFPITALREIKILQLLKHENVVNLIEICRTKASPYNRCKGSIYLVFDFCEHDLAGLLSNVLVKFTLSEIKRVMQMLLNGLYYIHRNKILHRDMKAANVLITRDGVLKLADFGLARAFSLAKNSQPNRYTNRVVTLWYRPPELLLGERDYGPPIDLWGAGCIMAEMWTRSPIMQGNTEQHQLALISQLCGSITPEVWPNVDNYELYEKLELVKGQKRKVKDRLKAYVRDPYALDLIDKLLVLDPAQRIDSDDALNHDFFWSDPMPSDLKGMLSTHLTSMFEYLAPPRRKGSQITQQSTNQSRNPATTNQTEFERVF

[25] = molecular target: GRK6 (human) (UniProt P43250)
[26] = molecular target: CAMK1G (human) (UniProt Q96NX5)
[27] = molecular target: MAP3K5 (human) (UniProt Q99683)
[28] = molecular target: MAP3K11 (human) (UniProt Q16584)
[29] = molecular target: MAP4K5 (human) (UniProt Q9Y4K4)
[30] = molecular target: CDK7 CCNH MNAT1 (human) (UniProt P50613+P51948+P51946)
[31] = molecular target: GSK3A (human) (UniProt P49840)
[32] = molecular target: CDK3 CCNE1 (human) (UniProt Q00526+P24864)
[33] = molecular target: PRKCD (human) (UniProt Q05655)
[34] = molecular target: MAP3K10 (human) (UniProt Q02779)
[35] = molecular target: MARK2 (human) (UniProt Q7KZI7)
[36] = molecular target: PKN1 (human) (UniProt Q16512)
Chain of PKN1 (human) (Q16512 whole entry, looked up): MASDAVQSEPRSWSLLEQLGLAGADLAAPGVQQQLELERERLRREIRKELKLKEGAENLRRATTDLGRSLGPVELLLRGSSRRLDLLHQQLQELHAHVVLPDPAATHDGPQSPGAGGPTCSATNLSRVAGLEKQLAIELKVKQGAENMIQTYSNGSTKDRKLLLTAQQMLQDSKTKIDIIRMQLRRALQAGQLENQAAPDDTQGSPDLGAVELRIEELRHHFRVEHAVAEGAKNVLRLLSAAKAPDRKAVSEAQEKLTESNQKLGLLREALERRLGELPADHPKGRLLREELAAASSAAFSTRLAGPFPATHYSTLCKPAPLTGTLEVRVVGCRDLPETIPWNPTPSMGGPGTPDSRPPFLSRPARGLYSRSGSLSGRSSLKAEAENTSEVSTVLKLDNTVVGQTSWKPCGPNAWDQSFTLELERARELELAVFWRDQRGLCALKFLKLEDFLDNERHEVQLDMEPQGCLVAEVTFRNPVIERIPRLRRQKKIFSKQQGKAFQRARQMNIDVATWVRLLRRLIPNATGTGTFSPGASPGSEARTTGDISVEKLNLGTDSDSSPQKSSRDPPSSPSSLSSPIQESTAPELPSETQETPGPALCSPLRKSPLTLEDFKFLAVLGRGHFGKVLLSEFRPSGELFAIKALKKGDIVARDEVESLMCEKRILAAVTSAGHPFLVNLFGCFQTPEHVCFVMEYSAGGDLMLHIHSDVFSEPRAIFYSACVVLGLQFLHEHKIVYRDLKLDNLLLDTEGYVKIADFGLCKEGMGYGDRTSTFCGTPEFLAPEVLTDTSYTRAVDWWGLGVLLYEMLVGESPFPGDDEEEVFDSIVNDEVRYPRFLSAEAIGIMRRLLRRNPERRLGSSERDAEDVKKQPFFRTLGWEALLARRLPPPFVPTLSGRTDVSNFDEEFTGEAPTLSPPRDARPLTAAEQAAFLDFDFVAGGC

[37] = molecular target: NEK6 (human) (UniProt Q9HC98)
[38] = molecular target: ROCK2 (human) (UniProt O75116)
Chain of ROCK2 (human) (O75116 whole entry, looked up): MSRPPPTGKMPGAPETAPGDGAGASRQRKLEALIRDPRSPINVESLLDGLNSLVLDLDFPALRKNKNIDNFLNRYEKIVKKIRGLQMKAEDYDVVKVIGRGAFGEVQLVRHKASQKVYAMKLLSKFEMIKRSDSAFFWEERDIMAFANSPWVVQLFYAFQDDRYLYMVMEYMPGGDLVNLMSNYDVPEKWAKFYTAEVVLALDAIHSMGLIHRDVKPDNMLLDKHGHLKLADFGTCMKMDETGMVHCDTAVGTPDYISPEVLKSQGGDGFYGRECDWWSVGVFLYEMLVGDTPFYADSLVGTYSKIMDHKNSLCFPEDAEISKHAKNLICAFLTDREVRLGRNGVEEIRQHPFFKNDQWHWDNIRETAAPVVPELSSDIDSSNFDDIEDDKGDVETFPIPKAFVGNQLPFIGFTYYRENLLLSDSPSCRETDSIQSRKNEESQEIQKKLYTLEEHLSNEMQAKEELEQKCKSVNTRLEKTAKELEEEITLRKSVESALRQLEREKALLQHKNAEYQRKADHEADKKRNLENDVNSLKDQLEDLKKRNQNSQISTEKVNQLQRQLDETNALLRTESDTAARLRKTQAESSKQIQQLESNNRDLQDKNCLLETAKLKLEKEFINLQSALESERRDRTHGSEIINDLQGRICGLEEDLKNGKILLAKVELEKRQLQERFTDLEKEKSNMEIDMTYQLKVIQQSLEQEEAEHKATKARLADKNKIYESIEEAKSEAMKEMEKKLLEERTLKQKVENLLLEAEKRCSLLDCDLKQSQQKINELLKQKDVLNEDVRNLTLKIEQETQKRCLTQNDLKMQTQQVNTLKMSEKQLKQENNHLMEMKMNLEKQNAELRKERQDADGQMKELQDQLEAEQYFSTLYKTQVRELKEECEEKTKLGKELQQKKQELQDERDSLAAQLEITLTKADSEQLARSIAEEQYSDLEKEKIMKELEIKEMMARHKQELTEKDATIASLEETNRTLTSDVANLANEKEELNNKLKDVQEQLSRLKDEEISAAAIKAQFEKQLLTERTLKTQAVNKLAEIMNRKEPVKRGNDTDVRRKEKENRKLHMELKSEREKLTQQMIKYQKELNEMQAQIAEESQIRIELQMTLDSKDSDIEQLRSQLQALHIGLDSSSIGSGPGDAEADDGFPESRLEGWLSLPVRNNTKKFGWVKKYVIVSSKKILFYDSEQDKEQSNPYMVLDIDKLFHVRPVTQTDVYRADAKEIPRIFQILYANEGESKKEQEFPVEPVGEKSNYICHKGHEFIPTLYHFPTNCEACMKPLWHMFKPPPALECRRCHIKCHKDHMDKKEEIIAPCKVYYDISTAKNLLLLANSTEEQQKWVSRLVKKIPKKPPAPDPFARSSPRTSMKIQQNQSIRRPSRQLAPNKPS

[39] = molecular target: MET (human) (UniProt P08581)
[40] = molecular target: EPHB1 (human) (UniProt P54762)
[41] = molecular target: EPHB3 (human) (UniProt P54753)

## CC(C)n1cnc2c(Nc3cccc(Cl)c3)nc(NCCO)nc21
[1]
  residual activity: 26.2%
[2]
  residual activity: 95.9%
[3]
  residual activity: 74.8%
[4]
  residual activity: 94.8%
[5]
  residual activity: 102%
[6]
  residual activity: 99.9%
[7]
  residual activity: 58.6%
[8]
  residual activity: 62.1%
[9]
  residual activity: 95.1%
[10]
  residual activity: 86.3%
[11]
  residual activity: 93.3%
[12]
  residual activity: 88.7%
[13]
  residual activity: 97.4%
[14]
  residual activity: 92.4%
[15]
  residual activity: 91.7%
[16]
  residual activity: 107%
[17]
  residual activity: 93.3%
[18]
  residual activity: 102%
[19]
  residual activity: 94.8%
[20]
  residual activity: 67.3%
[21]
  residual activity: 82.7%
[22]
  residual activity: 113%
[23]
  residual activity: 61.7%
[24]
  residual activity: 87.4%
[25]
  residual activity: 88.8%
[26]
  residual activity: 98.7%
[27]
  residual activity: 114%
[28]
  residual activity: 51%
[29]
  residual activity: 81.5%
[30]
  residual activity: 78.5%
[31]
  residual activity: 103%
[32]
  residual activity: 76.9%
[33]
  residual activity: 89.1%
[34]
  residual activity: 90.3%
[35]
  residual activity: 98.7%
[36]
  residual activity: 101%
[37]
  residual activity: 101%
[38]
  residual activity: 97.5%
[39]
  residual activity: 83.9%
[40]
  residual activity: 76.9%
[41]
  residual activity: 119%
